How the values were obtained:
[1] = system: SW480 colon carcinoma cells; assay: MTT assay (cytotoxicity); format: cell-based, human
Method: (§1) CH1/PA-1 ovarian teratocarcinoma cells (provided by L. R. Kelland, CRC Centre for Cancer Therapeutics, Institute of Cancer Research, Sutton, UK; confirmed by STR profiling as PA-1 ovarian teratocarcinoma cells at Multiplexion, Heidelberg, Germany), SW480 colon carcinoma and A549 non-small cell lung cancer cells (both obtained from the American Type Culture Collection, Manassas, VA, USA) were grown as adherent cultures in 75 cm² culture flasks (CytoOne, Starlab, Hamburg, Germany) by using minimal essential medium (MEM) supplemented with 1 mM sodium pyruvate, 4 mM L-glutamine, 1% (v/v) nonessential amino acids from 100-fold stock (all purchased from Sigma-Aldrich) and 10% heat-inactivated fetal bovine serum (BioWest, Nuaillé, France). Cells were maintained under standard culture conditions with 5% CO2 at 37 °C in a humidified atmosphere.
(§2) The 3-(4,5-dimethylthiazol-2-yl)-2,5-diphenyl-2H-tetrazolium bromide (MTT, Acros Organics, Geel, Belgium) assay was used to detect the cytotoxicity of the compounds after 24 h and 96 h incubation. In brief, cells were harvested from culture flasks and the following cell numbers (each in 100 µL) were seeded into 96-well culture plates (CytoOne, tissue culture treated, Starlab, Hamburg, Germany) for 24 h incubation: 1 × 10^4 (CH1/PA-1), 1 × 10^4 (SW480) and 1.5 × 10^4 (A549) cells per well; and for 96 h incubation: 1 × 10^3 (CH1/PA-1), 2 × 10^3 (SW480) and 3 × 10^3 (A549) cells per well. After 24 h, cells resuming their exponential growth rate were treated with test compounds at nine concentrations obtained by serial two-fold dilution. Stock solutions were prepared in DMSO (20 mM or 40 mM) and diluted in supplemented MEM. An amount of 100 µL of each concentration was added to the plates in triplicates and cells were exposed for 24 or 96 h. Afterward, the medium was replaced with 100 µL of MTT solution (5 mg/mL) in phosphate-buffered saline (PBS, Sigma-Aldrich), diluted 1:7 in RPMI 1640 medium (supplemented with 4 mM L-glutamine and 10% heat-inactivated FBS). Upon cell-viability-dependent conversion of the yellow, water-soluble tetrazolium salt into purple formazan products for 4 h, the crystals were dissolved in 150 µL DMSO. The absorbance of the resulting solutions, which is directly proportional to the number of viable cells, was measured at 550 nm (and at 690 nm as a reference) with a microplate reader (ELx808, BioTek, Winoosky, VT, USA) and Gen5TM 3.08 software (BioTek). Blank-corrected optical densities were subjected to graphical evaluation and interpolation of IC50 values. At least three biologically and technically independent experiments were performed.

[2] = system: A549 non-small cell lung cancer cells; assay: MTT assay (cytotoxicity); format: cell-based, human
Method: as §1, §2

[3] = system: CH1/PA-1 ovarian teratocarcinoma cells; assay: MTT assay (cytotoxicity); format: cell-based, human; details: CH1/PA-1, MTT
Method: as §1, §2

CH1/PA-1 cells = assay: Cell cycle distribution (PI staining, flow cytometry); format: cell-based, human; details: CH1/PA-1, 24 h
Method: (§3) For the flow-cytometric determination of cell cycle distribution, CH1/PA-1 (8 × 10^4 cells/well) and SW480 (1.2 × 10^5 cells/well) cells were seeded into 12-well plates (CytoOne, tissue culture treated) in 1 mL supplemented MEM. In the first 24 h, the cells were allowed to settle and resume exponential growth. […] Gemcitabine (Sigma-Aldrich, 0.01 and 0.05 µM) and etoposide (Sigma-Aldrich, 0.25, 0.5 and 1 µM) were used as positive controls. After removal of the treatment medium, cells were washed with 1 mL PBS and trypsinized. Cells were collected in Eppendorf tubes and centrifuged (300 g, 3 min), and the supernatant was discarded. In the following step, cells were washed with 1 mL PBS and resuspended in 500 µL PI/HFS buffer (0.1% v/v Triton X-100, 0.1% w/v sodium citrate, in PBS) containing 25 µg/mL propidium iodide (PI, 1.0 mg/mL, Sigma-Aldrich). The staining was carried out overnight at 4 °C in the dark, and 200 µL of the cell suspension was loaded into 96-well round bottom plates (Falcon). Samples were measured with a Millipore Guava easyCyte 8HT flow cytometer with GuavaSoft™ software in the InCyte-modus, and 10,000 events/sample were detected. Data were analyzed with FlowJo software v 10.8.1 (Tree Star, Ashland, OR, USA) using Watson algorithm. Percentages of cells in the three cell cycle phases (G1/G0, S and G2/M) were calculated by integrating the resulting histograms of fluorescence signals (Figures S29 and S30). Experiments were repeated at least three times. For statistical evaluation, an unpaired t-test with Welch’s correction was performed by using GraphPad PRISM software.

SW480 cells [4] = assay: as above; format: cell-based, human; details: SW480, 24 h
Method: as §3

SW480 cells [5] = assay: Apoptosis assay (annexin V-FITC/PI, flow cytometry); details: SW480, 24 h; for early apoptotic cells / late apoptotic cells / necrotic cells / viable cells: mean ± SD
Method: Cell death induction was quantitatively analyzed via flow cytometry using double staining with FITC-conjugated annexin V (eBioscience, San Diego, CA, USA) and propidium iodide (PI, 1.0 mg/mL, Sigma-Aldrich). SW480 cells were seeded into 24-well plates (7 × 10^4 cells/well) in 600 µL MEM per well and allowed to settle for 24 h. Afterward, cells were exposed to two or three different concentrations (0.1–100 µM) of the compounds (based on their cytotoxic activity) for 24 h. After treatment, the medium was collected, and cells were washed once with 37 °C warm PBS and harvested. Following trypsinization, the cell suspension was added to the pre-collected medium and cells were centrifuged (300 g, 3 min). The supernatant was removed, and the cell pellet was resuspended with 1.5 µL FITC-conjugated annexin V in 150 µL binding buffer (10 mM HEPES/NaOH pH 7.4, 140 mM NaCl and 2.5 mM CaCl2) and incubated at 37 °C for 15 min. An amount of 1 µL of propidium iodide (PI, Thermo Fisher) was added shortly before flow-cytometric analysis using a Guava easyCyte 8HT instrument (Merck Millipore, Burlington, MA, USA) with InCyte software. Results were quantified by using the FlowJo software (TreeStar). At least three independent experiments were conducted.

Row | SMILES | IC50 ([1]; 24 h exposure) [µM] | IC50 ([2]; 24 h exposure) [µM] | IC50 ([3]; 24 h exposure) [µM] | Cells in G1/G0 phase (CH1/PA-1 cells; 100 µM) [%] | Cells in G2/M phase (CH1/PA-1 cells; 100 µM) [%] | Cells in S phase (CH1/PA-1 cells; 100 µM) [%] | Cells in G1/G0 phase (CH1/PA-1 cells; 150 µM) [%] | Cells in G2/M phase (CH1/PA-1 cells; 150 µM) [%] | Cells in S phase (CH1/PA-1 cells; 150 µM) [%] | early apoptotic cells (SW480 cells [5]; 1 µM) [%] | late apoptotic cells (SW480 cells [5]; 1 µM) [%] | necrotic cells (SW480 cells [5]; 1 µM) [%] | viable cells (SW480 cells [5]; 1 µM) [%] | early apoptotic cells (SW480 cells [5]; 10 µM) [%] | late apoptotic cells (SW480 cells [5]; 10 µM) [%] | necrotic cells (SW480 cells [5]; 10 µM) [%] | viable cells (SW480 cells [5]; 10 µM) [%] | IC50 ([1]; 96 h exposure) [µM] | IC50 ([2]; 96 h exposure) [µM] | IC50 ([3]; 96 h exposure) [µM] | other results
1 | CC1=C([O-])C([O-])(n2cccn2)c2ccccc2C1=O.Cc1ccc(C(C)C)cc1.[Ru+2] (racemic) [Compound 1] | 0.46 ± 0.14 | 3.8 ± 2.6 | 59 ± 18 | 19.8 ± 2.1 | 40.9 ± 4.0 | 45.8 ± 3.8 | 20.0 ± 1.3 | 31.0 ± 3.2 | 52.9 ± 1.9 | 1.3 ± 0.5 | 4.9 ± 2.8 | 1.2 ± 0.8 | 93 ± 4 | 16 ± 1 | 64 ± 6 | 6.7 ± 3.1 | 13 ± 3 | – | – | – | Cells in G1/G0 phase (CH1/PA-1 cells; 50 µM): 18.7 ± 1.7%; Cells in G2/M phase (CH1/PA-1 cells; 50 µM): 48.2 ± 5.5%; Cells in S phase (CH1/PA-1 cells; 50 µM): 39.2 ± 8.7%; Increase of S phase fraction relative to untreated control (CH1/PA-1 cells; concentration-dependent): up to 11%; Cells in G1/G0 phase (SW480 cells [4]; 0.039 µM): 23.8 ± 6.1%; Cells in G2/M phase (SW480 cells [4]; 0.039 µM): 37.2 ± 2.3%; Cells in S phase (SW480 cells [4]; 0.039 µM): 40.0 ± 2.1%; Cells in G1/G0 phase (SW480 cells [4]; 0.078 µM): 15.4 ± 1.2%; Cells in G2/M phase (SW480 cells [4]; 0.078 µM): 34.5 ± 2.1%; Cells in S phase (SW480 cells [4]; 0.078 µM): 53.4 ± 1.1%; Cells in G1/G0 phase (SW480 cells [4]; 0.16 µM): 25.0 ± 8.2%; Cells in G2/M phase (SW480 cells [4]; 0.16 µM): 22.5 ± 4.3%; Cells in S phase (SW480 cells [4]; 0.16 µM): 56.2 ± 8.4%; early apoptotic cells (SW480 cells [5]; 0.1 µM): 3.7 ± 3.1%; late apoptotic cells (SW480 cells [5]; 0.1 µM): 3.6 ± 2.6%; necrotic cells (SW480 cells [5]; 0.1 µM): 0.77 ± 0.33%; viable cells (SW480 cells [5]; 0.1 µM): 92 ± 6%; Apoptosis / necrosis induction (in words) (SW480 cells [5]; concentrations covering the IC50 range): induced apoptosis to a high extent
2 | CC1=C([O-])C([O-])(n2cccn2)c2ccccc2C1=O.[Ru+2].c1ccccc1 (racemic) [Compound 2] | 31 ± 3 | > 200 | 170 ± 23 | 29.9 ± 5.7 | 37.0 ± 6.1 | 39.9 ± 1.4 | 30.8 ± 7.1 | 38.3 ± 5.3 | 36.5 ± 3.3 | 1.1 ± 0.4 | 2.0 ± 0.2 | 1.4 ± 0.8 | 95 ± 1 | 1.0 ± 0.3 | 2.0 ± 0.3 | 1.5 ± 0.8 | 96 ± 1 | 9.9 ± 2.5 | 141 ± 38 | 157 ± 8 | Cells in G1/G0 phase (CH1/PA-1 cells; 200 µM): 29.7 ± 8.5%; Cells in G2/M phase (CH1/PA-1 cells; 200 µM): 33.0 ± 3.0%; Cells in S phase (CH1/PA-1 cells; 200 µM): 39.1 ± 0.8%; Cells in G1/G0 phase (SW480 cells [4]; 5 µM): 36.0 ± 6.7%; Cells in G2/M phase (SW480 cells [4]; 5 µM): 32.0 ± 2.6%; Cells in S phase (SW480 cells [4]; 5 µM): 34.2 ± 3.8%; Cells in G1/G0 phase (SW480 cells [4]; 10 µM): 22.6 ± 5.7%; Cells in G2/M phase (SW480 cells [4]; 10 µM): 40.9 ± 4.2%; Cells in S phase (SW480 cells [4]; 10 µM): 38.8 ± 7.9%; Cells in G1/G0 phase (SW480 cells [4]; 20 µM): 22.3 ± 6.3%; Cells in G2/M phase (SW480 cells [4]; 20 µM): 27.9 ± 9.0%; Cells in S phase (SW480 cells [4]; 20 µM): 52.1 ± 3.3%
3 | CC1=C([O-])C([O-])(n2cccn2)c2ccccc2C1=O.Cc1ccccc1.[Ru+2] (racemic) [Compound 3] | 11 ± 2 | > 200 | 121 ± 18 | 25.8 ± 4.6 | 40.1 ± 2.7 | 38.6 ± 1.5 | 23.1 ±7.0 | 36.9 ± 1.5 | 40.8 ± 0.6 | 1.0 ± 0.7 | 2.1 ± 0.3 | 1.0 ± 0.5 | 96 ± 1 | 0.7 ± 0.3 | 2.1 ± 0.7 | 0.72 ± 0.49 | 97 ± 1 | 2.8 ± 0.7 | 72 ± 12 | 138 ± 10 | Cells in G1/G0 phase (CH1/PA-1 cells; 200 µM): 24.9 ± 5.8%; Cells in G2/M phase (CH1/PA-1 cells; 200 µM): 40.3 ± 2.6%; Cells in S phase (CH1/PA-1 cells; 200 µM): 36.4 ± 1.2%; Cells in G1/G0 phase (SW480 cells [4]; 1.25 µM): 28.4 ± 7.8%; Cells in G2/M phase (SW480 cells [4]; 1.25 µM): 35.1 ± 1.8%; Cells in S phase (SW480 cells [4]; 1.25 µM): 38.2 ± 7.1%; Cells in G1/G0 phase (SW480 cells [4]; 2.5 µM): 17.6 ± 4.5%; Cells in G2/M phase (SW480 cells [4]; 2.5 µM): 43.1 ± 7.6%; Cells in S phase (SW480 cells [4]; 2.5 µM): 43.3 ± 7.4%; Cells in G1/G0 phase (SW480 cells [4]; 5 µM): 20.4 ± 5.9%; Cells in G2/M phase (SW480 cells [4]; 5 µM): 28.2 ± 5.6%; Cells in S phase (SW480 cells [4]; 5 µM): 54.1 ± 3.2%
4 | CC1=C([O-])C([O-])(n2cccn2)c2ccccc2C1=O.[Ru+2].c1ccc2c(c1)CCC2 (racemic) [Compound 4] | 3.5 ± 1.6 | 119 ± 21 | 146 ± 18 | 23.9 ± 4.7 | 42.2 ± 4.7 | 38.3 ± 2.3 | – | – | – | 1.1 ± 0.7 | 2.4 ± 1.2 | 0.93 ± 0.65 | 96 ± 2 | 1.0 ± 0.4 | 8.3 ± 4.9 | 3.4 ± 4.0 | 87 ± 8 | 0.52 ± 0.09 | 9.1 ± 1.5 | 88 ± 10 | Cells in G1/G0 phase (CH1/PA-1 cells; 50 µM): 25.1 ± 4.7%; Cells in G2/M phase (CH1/PA-1 cells; 50 µM): 39.8 ± 2.9%; Cells in S phase (CH1/PA-1 cells; 50 µM): 38.4 ± 1.7%; Cells in G1/G0 phase (CH1/PA-1 cells; 200 µM): 24.5 ± 3.8%; Cells in G2/M phase (CH1/PA-1 cells; 200 µM): 40.0 ± 3.8%; Cells in S phase (CH1/PA-1 cells; 200 µM): 39.1 ± 3.9%; Cells in G1/G0 phase (SW480 cells [4]; 0.31 µM): 24.7 ± 9.2%; Cells in G2/M phase (SW480 cells [4]; 0.31 µM): 36.1 ± 3.0%; Cells in S phase (SW480 cells [4]; 0.31 µM): 42.1 ± 7.1%; Cells in G1/G0 phase (SW480 cells [4]; 0.63 µM): 19.0 ± 4.6%; Cells in G2/M phase (SW480 cells [4]; 0.63 µM): 45.8 ± 4.2%; Cells in S phase (SW480 cells [4]; 0.63 µM): 42.0 ± 3.5%; Cells in G1/G0 phase (SW480 cells [4]; 1.25 µM): 20.7 ± 5.3%; Cells in G2/M phase (SW480 cells [4]; 1.25 µM): 25.0 ± 5.8%; Cells in S phase (SW480 cells [4]; 1.25 µM): 57.1 ± 4.5%; early apoptotic cells (SW480 cells [5]; 0.1 µM): 1.1 ± 0.5%; late apoptotic cells (SW480 cells [5]; 0.1 µM): 2.1 ± 0.4%; necrotic cells (SW480 cells [5]; 0.1 µM): 1.7 ± 1.1%; viable cells (SW480 cells [5]; 0.1 µM): 95 ± 2%

— article PMC9699003, “Arene Variation of Highly Cytotoxic Tridentate Naphthoquinone-Based Ruthenium(II) Complexes and In-Depth In Vitro Studies” (Pharmaceutics, 2022)
